Marks after values point to notes of the source that are not given here. Where no end group is shown, it is not given here.
Assays:
female NOD mice = assay: Peptide treatment of 10-week old NOD mice, development of diabetes (Example 4, FIG. 4); type: in vivo; details: single s.c. injection in IFA at 10 weeks, observed through 8 months of age, vs IFA alone
Protocol: FIG. 4 is a graph showing the effect of peptide administration on diabetes. Groups of 10-20 NOD mice were treated at 10 weeks of age with 100 μg of mouse p12, p277, p35-GAD or MT-p278 in IFA, or IFA alone. The mice were bled monthly and followed for the onset of hyperglycemia.
(§1) (iv) Treatment and follow-up. Peptides, […], in PBS, were emulsified with an equal volume of IFA and injected subcutaneously into 10-week-old NOD females as described (Elias and Cohen, 1995). Control mice received an equal volume of PBS emulsified in IFA. The mice were monitored monthly for non-fasting blood glucose at 10am using the Blood Glucose Sensor (MediSense. Inc., Waltham, Mass.). Mice with a blood glucose greater than 11.1 mmol/L were considered to be diabetic; this concentration of glucose was greater than 3 standard deviations above the mean blood glucose concentration measured in non-diabetic mice (Elias and Cohen, 1995). Histological examination of the islets of the pancreas was done on sections stained with hematoxylin and eosin. The sections were scored independently by two observers who both were unaware of the identity of the groups. The chi square test was used to ascertain the statistical differences between the various treatments.
Following a protocol shown to be effective with mouse p277(Elias et al., 1991; Elias and Cohen, 1994; Elias and Cohen, 1995), groups of 10-week old female NOD mice were treatedby a single subcutaneous injection of each peptide ([…]) emulsified in IFA.

NOD mice = details: s.c. in IFA; young NOD mice or 12-17 week old NOD mice with advanced insulitis; cited from earlier work
C57BL/KsJ mice = details: mice that had received earlier a very low dose of STZ; cited from earlier work
peripheral blood T-cells = assay: Peripheral blood T-cell proliferation of IDDM patients and healthy controls to hsp60 and hsp60 synthetic peptides (Example 5); type: cell-based, human; details: 26 newly diagnosed IDDM patients; peptides 20 μg/ml, 7 days
draining lymph nodes = assay: T-cell proliferative responses of NOD mice to peptides (Example 4, FIG. 3); type: cell-based; details: NOD mice immunized with 25 μg peptide in IFA, lymph nodes 10 days later, 20 μg/ml
Protocol: FIG. 3 is a graph showing T-cell proliferative responses of NOD mice to peptides. Groups of three NOD mice were […] with peptides mouse p12, mouse p277, GAD-p35 and MT-p278 in IFA each at a dose of 25 μg in IFA. The draining lymph nodes were removed 10 days later and assayed for proliferative responses to the corresponding peptide at the concentrations of 5, 10, 20, and 50 μg/ml. The stimulation at the optimal concentration of 20 μg/ml is shown. The following ranges of cpm were obtained in medium controls: mouse p12, 881; mouse p277, 1243; MT-p278, 698 and GAD-p35 1430. Peptide mouse p38 is a peptide derived from mouse hsp60 (556-573), which has no sequence homology with the tested peptides and serves as a negative control of specificity. […] Each assay was done in triplicates for which the SD values are indicated by the bars. There was no cross-reactivity between the peptides (not shown).
(§2) (iii) T-Cell proliferation to peptides. Mice. Nine week old NOD mice or mice of other strains were immunized in the hind foot pads with 0.1 ml of an emulsion containing 25 μg peptide in complete Freund's adjuvant (CFA; Difco, Detroit, Mich.) mixed with an equal volume of phosphate-buffered saline (PBS). The draining popliteal lymph nodes were removed 10 days later and suspensions of lymphocytes in triplicate cultures were tested for proliferation in the presence of the various peptides (5 μg/ml) using the incorporation of [^3H]-thymidine as described (Elias et al., 1991). The results are shown as the stimulation index (SI): the ratio of the mean cpm in the presence of the test peptide to the mean cpm of control cultures without the peptide. Standard errors were always less than 10% of the means.
Spontaneous T cell responses in pre-diabetic NOD mice were detected to the mouse p277 peptide (Elias et al., 1991; Birk et al., 1996) and to larger fragments of the mouse hsp60 molecule that contained the mouse p277 sequence (Birk et al., 1996). […] Other peptides immunogenic for NOD mice are the MT-p278 peptide (residues 458-474 in the Mycobacterial hsp60 molecule), and GAD-p35 (residues 524-543 in the GAD65 molecule).

[1] = tested on: spleens of female NOD mice; assay: Spontaneous T-cell responses in spleens of female NOD mice (longitudinal study); type: cell-based; details: female NOD mice at ages 3-16 weeks
[2] = tested on: serum antibodies of the IgG1, IgG2a and IgG2b isotypes; assay: Serum anti-peptide antibody isotypes by ELISA in peptide-treated NOD mice (FIG. 5); type: in vivo; details: for antibody titers of the IgG1 and IgG2b isotypes: peptide-treated NOD mice, sera diluted 1:50, ELISA
Protocol: FIGS. 5A-5D show the IgG1, IgG2a and IgG2b antibody isotypes in response to peptide treatment. Mice were treated as described in the legend to FIG. 4. Individual samples were analyzed for antibodies to mouse p12 A; p277 B; GAD-p35 C; and MT-p278 D, of the IgG1, IgG2a and IgG2b isotypes. Similar effects were obtained in two experiments. The results are presented as the absorbance at 405 nm (OD) of 10 individual mice in each group. The level of significance of the prevalence of IgG1 and IgG2b antibodies in groups A and B compared to C and D is P<0.001. The differences between the levels of IgG1 and IgG2b antibodies compared to the IgG2a antibodies in groups A and B were significant (P<0.001). There was no cross-reactivity between the antibodies (not shown).
(v) Serum Antibodies. Mice were bled monthly to detect antibody responses. The ELISA assay was done as described (Elias et al., 1991). Briefly, flat bottom Maxi-sorb plates (Nunc, Roskilde, Denmark) were coated, for the detection of anti-peptide antibodies, with […] of peptide in PBS, at a concentration of […] for 2 h at room temperature followed by over night incubation at 4° C. After incubation with peptide, the plates were washed and blocked for 2 h at 37° C. with 7% BSA (Sigma) in PBS. Sera were diluted 1:50 then added for 2 h at 37° C., followed by incubation for 2 h with […] of goat anti-mouse IgG (gamma chain Fc specific) conjugated to alkaline phosphatase (Jackson, Philadelphia, Pa.). After washing, the plates were incubated with the substrate, diethanolamine (Sigma) and read using an ELISA reader at 405 nm.
Successful treatment of STZ-induced diabetes with mouse peptide p277 was associated with the appearance of anti-peptide antibodies predominantly of the IgG1 and IgG2b isotypes (Elias and Cohen, 1996). The peptide-treated NOD mice for their serum antibodies was therefore examined. […] Thus, effectiveness in inhibiting diabetes was associated with the induction of an antibody response mainly of the IgG1 and IgG2b isotypes.

[3] = tested on: draining popliteal lymph node lymphocytes; assay: T-cell proliferation of draining lymph node cells of NOD mice immunized with hsp60 peptides in CFA (Example 1, FIG. 2); type: cell-based; details: NOD mice immunized with peptide emulsified in CFA in hind foot pads, assayed after 10 days
Protocol: as §2, with “1991).” for “1991). The results are shown as the stimulation index (SI): the ratio of the mean cpm in the presence of the test peptide to the mean cpm of control cultures without the peptide. Standard errors were always less than 10% of the means.”
The immunogenicity of the hsp60 peptides p12, p32, p277(Val^6-Val^11) and p278 in NOD mice was tested by immunizing the mice with the peptides emulsified in CFA in the hind foot pads, and assaying the proliferative responses of draining lymph node cells after 10 days as described above in section iii(a).

NOD/Lt female mice = assay: Treatment of NOD mice with peptides in IFA: diabetes and mortality (Example 2); type: in vivo; details: 100 μg peptide in IFA s.c., nine-week old NOD/Lt females; for Diabetes (%): persistent blood glucose over 11.1 mmol/l at 25 weeks of age
Protocol: as §1, with “Mice with a blood glucose greater than 11.1 mmol/L were considered to be diabetic; this concentration of glucose was greater than 3 standard deviations above the mean blood glucose concentration measured in non-diabetic mice (Elias and Cohen, 1995).” left out
To test whether the p12 and p32 peptides can block the progression of diabetes as p277(Val^6-Val^11), the p277(Val6-Val^11), p12 or p32 peptides (100 μg in a 0.1 cc emulsion of IFA) were administered subcutaneously to groups of 10-12 nine-week old NOD/Lt female mice of the Jackson Laboratory, Bar-Harbor, Me. Diabetes, determined as persistent blood glucose levels over 11.1 mmol/l, was tested at 25 weeks of age. Control mice were untreated or were treated with p278.

[4] = tested on: Peripheral mononuclear cells (PBMC) of IDDM patients; assay: T-cell proliferative response of PBMC from newly diagnosed IDDM patients (Example 3); type: cell-based, human; details: antigen 10 μg/ml, 6 days, SI more than 2.0 positive
Protocol: To determine the T-cell responses to the various hsp60 peptides, lymphocytes from the peripheral blood of newly diagnosed (2 weeks-4 months) IDDM patients were tested in a proliferation assay. 10-20 ml of blood were removed into a sterile tube containing heparin as anti-coagulant and diluted in PBS 1:2. Peripheral mononuclear cells (PBMC) were isolated by centrifuging the blood over a lymphoprep layer. The PBMC were tested for proliferation in triplicates, in the presence of the various antigens (10 μg/ml) for 6 days using the incorporation of [^3H]-thymidine as a measure of proliferation. The antigens tested were human hsp60 or the hsp60 peptides p277(Val^6-Val^11), p12, p32 and control peptide p278. The T cell proliferative response is depicted as stimulation index (SI): The ratio between peptide-stimulated thymidine incorporation and background (no antigen added) thymidine incorporation by the T cells.

[5] = Cross-reactivity with native peptide by T-cell and antibody assays
Description: (ii) Antigens. […] Whenever unspecified, the human sequence is intended.

[6] = compared with p277; cited from earlier work

VLGGGCALLRCIPALDSLTPANED (cysteine pairing not given here) [p277, human hsp60 residues 437-460]
development of diabetes (female NOD mice): significantly protected
disease progression (NOD mice): arrest of disease progression
development of autoimmune diabetes (C57BL/KsJ mice): aborted the development of autoimmune diabetes

KAPGFGDNRKNQLKDMAIAT [p21, human hsp60 residues 301-320]
T-cell proliferative response of IDDM patients (S.I. 2 or greater positive) (peripheral blood T-cells): no IDDM patients responded

LVIIAEDVDGEALSTLVLNR [p19, human hsp60 residues 271-290]
T-cell proliferative response of IDDM patients (S.I. 2 or greater positive) (peripheral blood T-cells): no IDDM patients responded

EGDEATGANIVKVALEA [MT-p278]
immunogenicity (T-cell proliferative response) (draining lymph nodes): as strongly immunogenic as are mouse p277 and mouse p12
spontaneous T-cell responses [1]: spontaneous responses were detected
development of diabetes (female NOD mice): no different than was treatment with IFA alone
mice that made specific IgG1 antibodies ([2]; 10 individual mice per group, ELISA): only two of the ten
titers of IgG2b antibodies ([2]; compared with mouse p12 and mouse p277 groups): significantly lower titers
antibody titers of the IgG1 and IgG2b isotypes [2]: did not respond as strongly

VLGGGVALLRVIPALDSLTPANED [p277(Val^6-Val^11)]
immunogenicity (proliferative responses of draining lymph node cells) [3]: strongly immunogenic
Mortality (%) (NOD/Lt female mice): 5* %
therapeutic effect in treatment of diabetes (NOD/Lt female mice): effective in treatment of diabetes
Diabetes (%) (NOD/Lt female mice): 10%
Diabetes (%) (NOD/Lt female mice; listed as p277 (Val^6 - Val^11)): 10* %
T-cell proliferative response (SI) ([4]; Patient 1): 4.5
T-cell proliferative response (SI) ([4]; Patient 2): 5.0
T-cell proliferative response (SI) ([4]; Patient 3): 5.6
T-cell proliferative response (SI) ([4]; Patient 4): 1.0
T-cell proliferative response (SI) ([4]; Patient 5): 1.1
T-cell proliferative response (SI) ([4]; Patient 6): 1.3
T-cell proliferative response (SI) ([4]; Patient 7): 3.9
T-cell proliferative response (SI) ([4]; Patient 8): 1.2
cross-reactivity with the native peptide [5]: completely cross-reactive
activity in the treatment of diabetes [6]: as active as p277

mouse p277: mouse variant of p277, mouse hsp60 437-460; differs from human by 1 amino acid (VLGGGCALLRCIPALDSLKPANED; UniProt P63038 437-460, looked up, fragment)
immunogenicity (T-cell proliferative response) (draining lymph nodes): strong response
spontaneous T-cell responses [1]: spontaneous responses were detected
development of diabetes (female NOD mice): effective in inhibiting the development of diabetes
antibody titers of the IgG1 and IgG2b isotypes [2]: effective in inducing strong antibody titers

Reference: patent publication US6682897B1, “Peptides derived from human heat protein 60 for treatment of diabetes, compositions, methods and kits” (Yeda Research and Development Co. Ltd., priority 1995, dated 2004)
